This is an account of results in PMC11747041, “Study of an arginine- and tryptophan-rich antimicrobial peptide in peri-implantitis” (Frontiers in Bioengineering and Biotechnology, 2025).

Data set [1] concerns RAW264.7 cells. Description: Cell proliferation, CCK-8 assay. The class given is cell-based, murine. The note with it: RAW264.7, 125 μg/mL, CCK-8, OD450. On the procedure:
RAW264.7 cells (murine macrophage cell line, ATCC, Manassas, VA, United States) and HGFs (ATCC, Manassas, VA, United States) were cultured (37°C, sterile atmosphere of 5% CO2) in DMEM (Gibco, United States) containing 10% (v/v) fetal bovine serum (FBS, Solarbio Co., Ltd., Beijing, China) and 1% penicillin/streptomycin (Gibco, Carlsbad, CA).
We assessed cell growth using the Cell Counting Kit-8 (CCK-8) assay ([Chen et al., 2022]). Cells (1,000 cells/well) were seeded in a 96-well plate. After 24 h, the cells were treated with VR-12 (7.81–125 μg/mL, serial two-fold dilution) for 1, 3, 5, and 7 days. The wells without VR-12 were used as blank controls. Cells were incubated using the CCK-8 kit (New Cell&Molecular Biotech Co., Ltd., Suzhou, China), and the absorbance was measured at OD450.

In data set [2] the test system is RAW264.7 cells. Description: Live/dead assay (calcein AM/PI). It counts as cell-based, murine. The settings on record: RAW264.7, 62.5 μg/mL, 24 h, vs untreated cells. On the procedure: (§1) A total of 5 × 10^4 cells per well were inoculated into 24-well plates. After 24 h, the cells were exposed to two different types of culture medium: regular medium and medium supplemented with VR-12 (62.5 μg/mL). Following a 24-hour incubation period, the cells were incubated with 200 µL of fresh medium containing calcein AM solution and propidium iodide (PI; Beyotime, Shanghai, China) solution, protected from light for 20 min at room temperature. The observations were conducted using inverted fluorescence microscopy (IX71, Olympus, Japan) and images were captured for documentation purposes.

Data set [3] has as its system HGFs. The data set is described as follows: Live/dead assay (calcein AM/PI). It counts as cell-based, human. The note with it: 62.5 μg/mL, 24 h, vs untreated cells. The method, then:
as §1

For data set [4], the system named is Streptococcus gordonii (ATCC 10558). It counts as cell-based. The note with it: ATCC 10558, 48 h. On the procedure:
(§2) Streptococcus gordonii (ATCC 10558) is a facultative anaerobic bacterium, Fusobacterium nucleatum (ATCC 25586) and Porphyromonas gingivalis (BNCC 353909) are obligate anaerobic bacteria. The effectiveness of VR-12 in suppressing bacterial proliferation was assessed using the standard broth dilution method ([Tang et al., 2022]). Various concentrations of VR-12 (1,000–7.8 μg/mL, serial two-fold dilution) were mixed with liquid medium broth containing bacteria (1 × 10^6 CFU/mL) at a ratio of 1:1, with an overall volume of 200 µL. A blank control was established using a 200 µL PBS solution, whereas a negative control was prepared by combining 100 µL PBS solution with 100 µL of bacterial culture (1 × 10^6 CFU/mL). The bacterial cultures were incubated in liquid medium for 24/48 h at 37°C, with daily observation of the bacterial sediment accumulation at the base of the well. MIC refers to the minimal concentration of peptide that induces a clear liquid and no visible bacterial growth in the well. The bacterial suspension in the well with a concentration greater than the MIC was pipetted evenly and 10 µL of the liquid was extracted from the well and transferred to agar plates and incubated for 24/48 h for MBC determination.

Data set [5] relates to Porphyromonas gingivalis (BNCC 353909). It counts as cell-based. The note with it: 48 h. On the procedure:
as §2

The subject of data set [6] is Fusobacterium nucleatum (ATCC 25586). It counts as cell-based. The settings on record: ATCC 25586, 48 h. On the procedure:
as §2

The test system of data set [7] is rat red blood cells. The settings on record: 125 μg/mL (maximum concentration examined), rat erythrocytes 5% (v/v) suspension, 37°C, 1.5 h, OD540, 1% Triton X-100 positive control.
Protocol: Initially, the cells underwent three washing cycles with PBS, followed by centrifugation at 1,000 rpm for 10 min at ambient temperature. After removing the supernatant, a suspension of cells at a concentration of 5% (v/v) was prepared using 0.9% NaCl solution (w/v). Subsequently, 100 μL of peptides at varying concentrations (7.81–125 μg/mL, serial two-fold dilution) were combined with 100 μL of the red blood cell suspensions. The mixture underwent incubation at 37°C for a duration of 1.5 h, after which it was subjected to centrifugation at 1,000 rpm for 5 min, and measurement of absorbance at OD540.1% Triton X-100 and NaCl (0.9%) were used as positive and negative controls, respectively. The hemolysis rate (HR) was determined by employing this formula: HR%=ODt−ODn/ODp−ODn×100% where ODp, ODn and ODt were the absorbance values of the positive control group, the negative control group and the test group, respectively.

No end group written: not given here.

As for VRLWVRVRRWRR-NH2 [VR-12], the α-helix + β-sheet proportion turned out to be 31.5%. For the same substance, the Inhibition rate result in data set [1] is given as “approximately 50%”. Moreover, the “Cell viability by live/dead staining” value in data set [2] was “no significant difference in cell viability”. Besides, the “Cell viability by live/dead staining” value in data set [3] is reported as “no significant difference in cell viability”. Moreover, in data set [4], the MBC (as a rule, the smallest concentration meeting the test's criterion for killing) was determined as 62.5 µg/mL and the MIC (usually the lowest concentration that inhibits growth of the organism) turned out to be 31.25 µg/mL. Also, in data set [5], the MBC came to 125 µg/mL and the MIC was found to be 62.5 µg/mL. In data set [6], the minimum bactericidal concentration (MBC) amounted to 125 µg/mL and the minimum inhibitory concentration (MIC) is 62.5 µg/mL. In addition, the Hemolysis rate in data set [7] was 3.27%.
